Values quoted from earlier work in PMC3320885 (PLoS ONE, 2012).

Assays:
[1] = system: receptor tyrosine kinase PDGFR; set-up: method as in PMID 12543790, PMID 17114238
[2] = system: BCR-Abl T315I mutant
[3] = system: BCR-Abl V299L mutant
[4] = system: BCR-Abl Q252H mutant
[5] = system: receptor tyrosine kinase Kit; set-up: method as in PMID 12543790, PMID 17114238
[6] = system: BCR-Abl Y253F mutant

COc1cc(Nc2c(C#N)cnc3cc(OCCCN4CCN(C)CC4)c(OC)cc23)c(Cl)cc1Cl [bosutinib]
activity against PDGFR [1]: devoid of activity
effect of T315I mutation [2]: confer resistance
effect of V299L mutation [3]: confer resistance
effect of Q252H mutation on inhibition [4]: not affected
activity against Kit [5]: devoid of activity
effect of Y253F mutation on inhibition [6]: not affected
